The values below come from patent US8975417B2, “Pyrazolopyrrolidine derivatives and their use in the treatment of disease” (Novartis AG, priority 2013, dated 2015).

The target in one assay is His-Brd4(44-477) (Homo sapiens (Human), UniProt O60885). The assay is described as follows: TR-FRET in-vitro binding assay for BRD4. As to conditions: biochemical. In a few lines: (§1)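 Assay buffer HEPES pH 7.5/NaCl/Tween20/BSA; protein solution 45 nM, peptide solution 60 nM acetyl-H4 (AcK5,8,12,16). Incubated 30 °C for 35 min; Eu-anti-His6 and SA-APC detection, TR-FRET read.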
Background: In TR-FRET formats the signal depends on donor and acceptor labels being close together.

The next assay addresses His-Brd2(60-472) (Homo sapiens (Human), UniProt P25440). The assay is described as follows: TR-FRET in-vitro binding assay for BRD2. The following applies: biochemical. In a few lines:
as §1

The target of the next assay is His-Brd3(20-477) (Homo sapiens (Human), UniProt Q15059). As to the kind of experiment: TR-FRET in-vitro binding assay for BRD3. The following applies: biochemical. In a few lines:
as §1

The target in assay [1] is His-CREBBP (1081-1197) bromodomain (Homo sapiens (Human), UniProt Q92793). The assay is described as follows: AlphaScreen in-vitro binding assay for CREBBP. The following applies: biochemical. In a few lines:
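Ni-chelate acceptor and streptavidin donor beads (45 µg/mL each, in 50 mM HEPES pH 7.5, 150 mM NaCl, 0.02% BSA) were then added for 60 min at room temperature. IC50 came from 8-point non-linear regression.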
On the technique in general: Alpha assays give light when donor and acceptor beads are brought close together.

The next assay has as its system MV-4-11 cells. As to the kind of experiment: Cell growth inhibition assay (CellTiter-Glo), MV-4-11. It is filed as cell-based. The following applies: Homo sapiens, MV4-11, read-out: MV-4-11 TGI. In a few lines: (§2)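 Dose-response over 3-fold dilutions from 10 μM; 0.1% DMSO control. Endpoint: CellTiter-Glo ATP signal, background-subtracted and day 0-corrected.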
The test system of the next assay is THP-1 cells. The assay is described as follows: Cell growth inhibition assay (CellTiter-Glo), THP-1. It is filed as cell-based. As to conditions: Homo sapiens, read-out: THP-1 TGI. In a few lines: as §2
(In general: In ATP-based viability assays light output follows the ATP content of the culture.)

Another assay concerns K-562 cells. As to the kind of experiment: Cell growth inhibition assay (CellTiter-Glo), K-562. It is filed as cell-based, human. The following applies: Homo sapiens, K562, read-out: K-562 TGI. In a few lines: as §2

His-Brd2(60-472), sequence (P25440 60-472): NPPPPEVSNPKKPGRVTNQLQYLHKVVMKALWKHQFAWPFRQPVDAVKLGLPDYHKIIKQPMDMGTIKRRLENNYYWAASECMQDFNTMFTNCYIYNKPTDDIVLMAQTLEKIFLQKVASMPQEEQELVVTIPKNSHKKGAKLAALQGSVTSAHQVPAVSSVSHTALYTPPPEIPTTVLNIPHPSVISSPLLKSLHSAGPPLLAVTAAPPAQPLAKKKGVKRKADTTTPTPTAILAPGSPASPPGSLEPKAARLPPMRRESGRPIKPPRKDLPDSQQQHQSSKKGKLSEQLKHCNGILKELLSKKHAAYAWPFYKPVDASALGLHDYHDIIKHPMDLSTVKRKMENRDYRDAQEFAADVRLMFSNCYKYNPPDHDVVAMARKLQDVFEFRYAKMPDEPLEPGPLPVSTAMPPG
His-Brd3(20-477), sequence (Q15059 20-477): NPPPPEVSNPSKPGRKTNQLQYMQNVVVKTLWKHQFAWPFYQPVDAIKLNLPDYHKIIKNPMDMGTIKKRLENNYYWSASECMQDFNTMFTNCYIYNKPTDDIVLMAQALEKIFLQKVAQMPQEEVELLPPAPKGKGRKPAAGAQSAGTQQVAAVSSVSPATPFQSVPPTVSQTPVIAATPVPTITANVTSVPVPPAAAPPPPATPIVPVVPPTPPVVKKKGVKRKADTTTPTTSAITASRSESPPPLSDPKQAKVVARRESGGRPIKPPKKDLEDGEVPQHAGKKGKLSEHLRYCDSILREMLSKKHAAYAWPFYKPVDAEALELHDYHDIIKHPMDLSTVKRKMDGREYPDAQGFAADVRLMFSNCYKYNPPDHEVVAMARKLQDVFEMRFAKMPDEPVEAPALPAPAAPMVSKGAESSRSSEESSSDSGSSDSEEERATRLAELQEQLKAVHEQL
His-CREBBP (1081-1197) bromodomain, sequence (Q92793 1081-1197): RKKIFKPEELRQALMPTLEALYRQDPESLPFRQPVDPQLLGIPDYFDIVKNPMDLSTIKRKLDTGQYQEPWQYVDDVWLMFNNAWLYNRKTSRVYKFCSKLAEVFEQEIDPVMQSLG

Usually IC50 stands for the midpoint of a concentration-inhibition curve. Higher therefore signals weaker potency in that assay. For `Cc1nn(C(C)C)c2c1C(c1ccc(Cl)cc1F)N(c1cc(C)c3nnc(C)n3c1)C2=O` (stereo not drawn) [Example 168, 4-(4-chloro-2-fluorophenyl)-5-(3,8-dimethyl-[1,2,4]triazolo[4,3-a]pyridin-6-yl)-1-isopropyl-3-methyl-4,5-dihydropyrrolo[3,4-c]pyrazol-6(1H)-one], the IC50 on His-Brd4(44-477) came to 59 nM; on His-Brd2(60-472) it was 71 nM; on His-Brd3(20-477) it was 30 nM; in assay [1] it was 11000 nM. The IC (total growth inhibition) with MV-4-11 cells was 0.0403 µM; in the assay with THP-1 cells, 0.0949 µM; in the assay on K-562 cells it was greater than 10 µM.
For `CCn1nc(C)c2c1C(=O)N(c1cc(C)c(=O)n(C)c1)C2c1ccc(Cl)cc1F` (stereo not drawn) [Example 170, 4-(4-chloro-2-fluorophenyl)-5-(1,5-dimethyl-6-oxo-1,6-dihydropyridin-3-yl)-1-ethyl-3-methyl-4,5-dihydropyrrolo[3,4-c]pyrazol-6(1H)-one], the IC50 at His-Brd4(44-477) was 15 nM; on His-Brd2(60-472) it was 16 nM; on His-Brd3(20-477), 13 nM; in assay [1] it was 630 nM. The values for the IC (total growth inhibition) in the assay with MV-4-11 cells, in the assay on THP-1 cells and in the assay on K-562 cells were 0.0159 µM, 0.0331 µM and greater than 10 µM, respectively.
Take `CCn1nc2c(c1C)C(c1ccc(Cl)cc1F)N(c1cc(C)c(=O)n(C)c1)C2=O` (stereo not drawn) [Example 171, 4-(4-chloro-2-fluorophenyl)-5-(1,5-dimethyl-6-oxo-1,6-dihydropyridin-3-yl)-2-ethyl-3-methyl-4,5-dihydropyrrolo[3,4-c]pyrazol-6(2H)-one]: the IC50 at His-Brd4(44-477) is 140 nM; on His-Brd2(60-472) it was 140 nM; on His-Brd3(20-477), 93 nM; in assay [1] it was 1500 nM. Moreover, the IC (total growth inhibition) in the assay on MV-4-11 cells was 0.174 µM; with THP-1 cells, 0.297 µM; in the assay on K-562 cells it was greater than 10 µM.
Take `Cc1n[nH]c2c1C(c1ccc(F)cc1F)N(c1cc(C)c3nnc(C)n3c1)C2=O` (stereo not drawn) [Example 172, 4-(2,4-difluorophenyl)-5-(3,8-dimethyl-[1,2,4]triazolo[4,3-a]pyridin-6-yl)-3-methyl-4,5-dihydropyrrolo[3,4-c]pyrazol-6(2H)-one]: the IC50 on His-Brd4(44-477) was 97 nM; at His-Brd2(60-472) it was 220 nM; on His-Brd3(20-477) it was 110 nM; in assay [1] it was greater than 37000 nM. Besides, the IC (total growth inhibition) in the assay with MV-4-11 cells was 0.323 µM; in the assay on THP-1 cells, 0.782 µM; in the assay with K-562 cells it was greater than 10 µM.
Take `COc1ncccc1-n1nc(C)c2c1C(=O)N(c1cc(C)c3nnc(C)n3c1)C2c1ccc(F)cc1F` (stereo not drawn) [Example 173, 4-(2,4-difluorophenyl)-5-(3,8-dimethyl-[1,2,4]triazolo[4,3-a]pyridin-6-yl)-1-(2-methoxypyridin-3-yl)-3-methyl-4,5-dihydropyrrolo[3,4-c]pyrazol-6(1H)-one]: the half-maximal inhibitory concentration (IC50) on His-Brd4(44-477) was 58 nM; on His-Brd2(60-472), 79 nM; on His-Brd3(20-477), 87 nM; in assay [1] it was greater than 37000 nM. Besides, the IC (total growth inhibition) with MV-4-11 cells was 0.139 µM; in the assay on THP-1 cells it was 0.282 µM; with K-562 cells, greater than 10 µM.
As for `Cc1nn(C(C)C)c2c1C(c1ccc(F)cc1F)N(c1cc(C)c3nnc(C)n3c1)C2=O` (stereo not drawn) [Example 174, 4-(2,4-difluorophenyl)-5-(3,8-dimethyl-[1,2,4]triazolo[4,3-a]pyridin-6-yl)-1-isopropyl-3-methyl-4,5-dihydropyrrolo[3,4-c]pyrazol-6(1H)-one], the IC50 on His-Brd4(44-477) amounted to 52 nM; at His-Brd2(60-472) it was 110 nM; on His-Brd3(20-477), 72 nM; in assay [1] it was 12000 nM. In addition, the IC (total growth inhibition) in the assay with MV-4-11 cells was 0.0588 µM; in the assay with THP-1 cells, 0.105 µM; in the assay on K-562 cells, greater than 10 µM.
`Cc1cc(N2C(=O)c3nn(C(C)C)c(C)c3C2c2ccc(F)cc2F)cn2c(C)nnc12` (stereo not drawn) [Example 175, 4-(2,4-difluorophenyl)-5-(3,8-dimethyl-[1,2,4]triazolo[4,3-a]pyridin-6-yl)-2-isopropyl-3-methyl-4,5-dihydropyrrolo[3,4-c]pyrazol-6(2H)-one]: the IC50 on His-Brd4(44-477) was determined as 34 nM; on His-Brd2(60-472), 72 nM; on His-Brd3(20-477) it was 37 nM; in assay [1], 13000 nM. The IC (total growth inhibition) in the assay on MV-4-11 cells is 0.0867 µM; with THP-1 cells it was 0.131 µM; in the assay on K-562 cells it was greater than 10 µM.
`Cc1nn(C2CC2)c2c1C(c1ccc(F)cc1F)N(c1cc(C)c3nnc(C)n3c1)C2=O` (stereo not drawn) [Example 176, 1-cyclopropyl-4-(2,4-difluorophenyl)-5-(3,8-dimethyl-[1,2,4]triazolo[4,3-a]pyridin-6-yl)-3-methyl-4,5-dihydropyrrolo[3,4-c]pyrazol-6(1H)-one]: the IC50 on His-Brd4(44-477) is 100 nM; at His-Brd2(60-472), 120 nM; at His-Brd3(20-477), 90 nM; in assay [1] it was greater than 37000 nM. Further, the IC (total growth inhibition) with MV-4-11 cells was 0.0631 µM; with THP-1 cells, 0.106 µM; in the assay with K-562 cells, greater than 10 µM.
Regarding `Cc1nn(C2CC2)c2c1C(c1ccc(Cl)cc1F)N(c1cc(C)c3nnc(C)n3c1)C2=O` (stereo not drawn) [Example 178, 4-(4-chloro-2-fluorophenyl)-1-cyclopropyl-5-(3,8-dimethyl-[1,2,4]triazolo[4,3-a]pyridin-6-yl)-3-methyl-4,5-dihydropyrrolo[3,4-c]pyrazol-6(1H)-one], the IC50 at His-Brd4(44-477) stood at 66 nM; on His-Brd2(60-472), 68 nM; at His-Brd3(20-477) it was 62 nM; in assay [1] it was 32000 nM. Also, the figures for the IC (total growth inhibition) in the assay with MV-4-11 cells, with THP-1 cells and with K-562 cells were 0.0491 µM, 0.107 µM and greater than 10 µM, respectively.
For `Cc1nn(C2CC2)c2c1C(c1ccc(Cl)cc1F)N(c1cc(C)c(=O)n(C)c1)C2=O` (stereo not drawn) [Example 179, 4-(4-chloro-2-fluorophenyl)-1-cyclopropyl-5-(1,5-dimethyl-6-oxo-1,6-dihydropyridin-3-yl)-3-methyl-4,5-dihydropyrrolo[3,4-c]pyrazol-6(1H)-one], the concentration for half-maximal inhibition (IC50) stood at 95 nM at His-Brd4(44-477), 92 nM at His-Brd2(60-472), 90 nM on His-Brd3(20-477) and 3900 nM in assay [1]. Also, the IC (total growth inhibition) in the assay with MV-4-11 cells was 0.12 µM; in the assay with THP-1 cells, 0.272 µM; in the assay on K-562 cells, greater than 10 µM.
On to `Cc1nn(C(C)C)c2c1C(c1ccc(Cl)cc1F)N(c1cc(C)c(=O)n(C)c1)C2=O` (stereo not drawn) [Example 180, 4-(4-chloro-2-fluorophenyl)-5-(1,5-dimethyl-6-oxo-1,6-dihydropyridin-3-yl)-1-isopropyl-3-methyl-4,5-dihydropyrrolo[3,4-c]pyrazol-6(1H)-one], for which the IC50 was found to be 83 nM at His-Brd4(44-477), 89 nM on His-Brd2(60-472), 71 nM on His-Brd3(20-477) and 2400 nM in assay [1]. For the same compound, the results for the IC (total growth inhibition) with MV-4-11 cells, in the assay on THP-1 cells and with K-562 cells were 0.108 µM, 0.186 µM and greater than 10 µM, respectively.
With `CCn1nc(C)c2c1C(=O)N(c1cc(C)c3nnc(C)n3c1)C2c1ccc(F)cc1F` (stereo not drawn) [Example 181, 4-(2,4-difluorophenyl)-5-(3,8-dimethyl-[1,2,4]triazolo[4,3-a]pyridin-6-yl)-1-ethyl-3-methyl-4,5-dihydropyrrolo[3,4-c]pyrazol-6(1H)-one], the IC50 was 34 nM at His-Brd4(44-477), 62 nM at His-Brd2(60-472), 40 nM at His-Brd3(20-477) and greater than 37000 nM in assay [1]. Besides, the IC (total growth inhibition) in the assay on MV-4-11 cells is 0.0886 µM; in the assay on THP-1 cells it was 0.117 µM; in the assay on K-562 cells, greater than 10 µM.
